# Reference: ChEMBL document CHEMBL3885881, “DrugMatrix”
# Species on record: Rattus norvegicus
# Test: DrugMatrix - Regimen: Daily Repeat
# Assay type: toxicity, organism-based, Sprague-Dawley
# Design: regimen Daily Repeat, gender Male, age 6-8 weeks
# Settings: in vivo, po, route oral GAVAGE, vehicle .5 % CMC; for BASOPHIL / EOSINOPHIL / ERYTHROCYTE COUNT / HEMATOCRIT / HEMOGLOBIN / LEUKOCYTE COUNT / LYMPHOCYTE / MEAN CORPUSCULAR HEMOGLOBIN / MEAN CORPUSCULAR HEMOGLOBIN CONCENTRATION / MEAN CORPUSCULAR VOLUME / MONOCYTE / NEUTROPHIL / PLATELET COUNT: tissue Blood; for ALANINE AMINOTRANSFERASE / ALBUMIN / ALKALINE PHOSPHATASE / ASPARTATE AMINOTRANSFERASE / BLOOD UREA NITROGEN / CARBON DIOXIDE / CHLORIDE / CHOLESTEROL / CREATINE PHOSPHOKINASE / CREATININE / GLUCOSE / LACTATE DEHYDROGENASE / LIPASE / PHOSPHORUS / POTASSIUM / SODIUM / TOTAL BILIRUBIN / TOTAL PROTEIN / URIC ACID: tissue Plasma
# [1] = 0 mg/kg, 72 h, dose level Control, time 3 day
# [2] = 0 mg/kg, 120 h, dose level Control, time 5 day
# [3] = 0 mg/kg, […], dose level Control, time 14 day
# [4] = 82 mg/kg, 72 h, dose level High, time 3 day
# [5] = 82 mg/kg, 120 h, dose level High, time 5 day
# [6] = 82 mg/kg, […], dose level High, time 14 day
structure (smiles),measurement,setting,value
CCOP(=S)(OCC)Oc1nc(Cl)c(Cl)cc1Cl [CHLORPYRIFOS],BASOPHIL,[1],0.62%
same,EOSINOPHIL,[1],0.52%
same,ERYTHROCYTE COUNT,[1],6.33 x10E6/uL
same,HEMATOCRIT,[1],41.88%
same,HEMOGLOBIN,[1],13.52 G/DL
same,LEUKOCYTE COUNT,[1],11.39 x10E3/uL
same,LYMPHOCYTE,[1],86.18%
same,MEAN CORPUSCULAR HEMOGLOBIN,[1],21.35 pg
same,MEAN CORPUSCULAR HEMOGLOBIN CONCENTRATION,[1],32.23 G/DL
same,MEAN CORPUSCULAR VOLUME,[1],66.25 fL
same,MONOCYTE,[1],1.93%
same,NEUTROPHIL,[1],9.1%
same,PLATELET COUNT,[1],1204.5 x10E3/uL
same,ALANINE AMINOTRANSFERASE,[1],43 u/L
same,ALBUMIN,[1],4.08 G/DL
same,ALKALINE PHOSPHATASE,[1],426.33 u/L
same,ASPARTATE AMINOTRANSFERASE,[1],72.5 u/L
same,BLOOD UREA NITROGEN,[1],16.67 mg/dL
same,CARBON DIOXIDE,[1],28.33 mmol/L
same,CHLORIDE,[1],103.5 MEQ/L
same,CHOLESTEROL,[1],78.83 mg/dL
same,CREATINE PHOSPHOKINASE,[1],325.67 u/L
same,CREATININE,[1],0.48 mg/dL
same,GLUCOSE,[1],171.67 mg/dL
same,LACTATE DEHYDROGENASE,[1],107.33 u/L
same,LIPASE,[1],11.83 u/L
same,PHOSPHORUS,[1],12.55 mg/dL
same,POTASSIUM,[1],6.57 MEQ/L
same,SODIUM,[1],145.67 MEQ/L
same,TOTAL BILIRUBIN,[1],0.42 mg/dL
same,TOTAL PROTEIN,[1],6.1 G/DL
same,URIC ACID,[1],1.57 mg/dL
same,BASOPHIL,[2],0.48%
same,EOSINOPHIL,[2],0.67%
same,ERYTHROCYTE COUNT,[2],6.69 x10E6/uL
same,HEMATOCRIT,[2],44.17%
same,HEMOGLOBIN,[2],13.78 G/DL
same,LEUKOCYTE COUNT,[2],7.86 x10E3/uL
same,LYMPHOCYTE,[2],85.9%
same,MEAN CORPUSCULAR HEMOGLOBIN,[2],20.6 pg
same,MEAN CORPUSCULAR HEMOGLOBIN CONCENTRATION,[2],31.25 G/DL
same,MEAN CORPUSCULAR VOLUME,[2],65.9 fL
same,MONOCYTE,[2],3.27%
same,NEUTROPHIL,[2],8.67%
same,PLATELET COUNT,[2],1182.33 x10E3/uL
same,ALANINE AMINOTRANSFERASE,[2],37.5 u/L
same,ALBUMIN,[2],4 G/DL
same,ALKALINE PHOSPHATASE,[2],348.17 u/L
same,ASPARTATE AMINOTRANSFERASE,[2],71.67 u/L
same,BLOOD UREA NITROGEN,[2],13 mg/dL
same,CARBON DIOXIDE,[2],27 mmol/L
same,CHLORIDE,[2],104.67 MEQ/L
same,CHOLESTEROL,[2],73.33 mg/dL
same,CREATINE PHOSPHOKINASE,[2],211.33 u/L
same,CREATININE,[2],0.23 mg/dL
same,GLUCOSE,[2],155 mg/dL
same,LACTATE DEHYDROGENASE,[2],133.83 u/L
same,LIPASE,[2],11.17 u/L
same,PHOSPHORUS,[2],14.53 mg/dL
same,POTASSIUM,[2],6.65 MEQ/L
same,SODIUM,[2],148.17 MEQ/L
same,TOTAL BILIRUBIN,[2],0.28 mg/dL
same,TOTAL PROTEIN,[2],6.22 G/DL
same,URIC ACID,[2],1.57 mg/dL
same,BASOPHIL,[3],0.97%
same,EOSINOPHIL,[3],0.8%
same,ERYTHROCYTE COUNT,[3],7.02 x10E6/uL
same,HEMATOCRIT,[3],44.43%
same,HEMOGLOBIN,[3],14.58 G/DL
same,LEUKOCYTE COUNT,[3],16.49 x10E3/uL
same,LYMPHOCYTE,[3],79.03%
same,MEAN CORPUSCULAR HEMOGLOBIN,[3],20.85 pg
same,MEAN CORPUSCULAR HEMOGLOBIN CONCENTRATION,[3],32.78 G/DL
same,MEAN CORPUSCULAR VOLUME,[3],63.57 fL
same,MONOCYTE,[3],1.9%
same,NEUTROPHIL,[3],15.18%
same,PLATELET COUNT,[3],1184.33 x10E3/uL
same,ALANINE AMINOTRANSFERASE,[3],43 u/L
same,ALBUMIN,[3],4.25 G/DL
same,ALKALINE PHOSPHATASE,[3],409.67 u/L
same,ASPARTATE AMINOTRANSFERASE,[3],84.17 u/L
same,BLOOD UREA NITROGEN,[3],16 mg/dL
same,CARBON DIOXIDE,[3],35.17 mmol/L
same,CHLORIDE,[3],99.83 MEQ/L
same,CHOLESTEROL,[3],68.67 mg/dL
same,CREATINE PHOSPHOKINASE,[3],384.17 u/L
same,CREATININE,[3],0.43 mg/dL
same,GLUCOSE,[3],160 mg/dL
same,LACTATE DEHYDROGENASE,[3],115.33 u/L
same,LIPASE,[3],17.33 u/L
same,PHOSPHORUS,[3],10.68 mg/dL
same,POTASSIUM,[3],6.48 MEQ/L
same,SODIUM,[3],148.17 MEQ/L
same,TOTAL BILIRUBIN,[3],0.45 mg/dL
same,TOTAL PROTEIN,[3],6.57 G/DL
same,URIC ACID,[3],1.78 mg/dL
same,BASOPHIL,[4],0.9%
same,EOSINOPHIL,[4],0.43%
same,ERYTHROCYTE COUNT,[4],6.87 x10E6/uL
same,HEMATOCRIT,[4],44.5%
same,HEMOGLOBIN,[4],14.33 G/DL
same,LEUKOCYTE COUNT,[4],11.45 x10E3/uL
same,LYMPHOCYTE,[4],88.3%
same,MEAN CORPUSCULAR HEMOGLOBIN,[4],20.9 pg
same,MEAN CORPUSCULAR HEMOGLOBIN CONCENTRATION,[4],32.27 G/DL
same,MEAN CORPUSCULAR VOLUME,[4],64.87 fL
same,MONOCYTE,[4],1.27%
same,NEUTROPHIL,[4],7.87%
same,PLATELET COUNT,[4],1233 x10E3/uL
same,ALANINE AMINOTRANSFERASE,[4],42 u/L
same,ALBUMIN,[4],4.03 G/DL
same,ALKALINE PHOSPHATASE,[4],285.67 u/L
same,ASPARTATE AMINOTRANSFERASE,[4],78.33 u/L
same,BLOOD UREA NITROGEN,[4],15.33 mg/dL
same,CARBON DIOXIDE,[4],30.33 mmol/L
same,CHLORIDE,[4],103.67 MEQ/L
same,CHOLESTEROL,[4],47 mg/dL
same,CREATINE PHOSPHOKINASE,[4],263.33 u/L
same,CREATININE,[4],0.5 mg/dL
same,GLUCOSE,[4],170 mg/dL
same,LACTATE DEHYDROGENASE,[4],57.67 u/L
same,LIPASE,[4],11 u/L
same,PHOSPHORUS,[4],13.43 mg/dL
same,POTASSIUM,[4],7.33 MEQ/L
same,SODIUM,[4],146 MEQ/L
same,TOTAL BILIRUBIN,[4],0.37 mg/dL
same,TOTAL PROTEIN,[4],5.93 G/DL
same,URIC ACID,[4],1.53 mg/dL
same,BASOPHIL,[5],0.33%
same,EOSINOPHIL,[5],0.5%
same,ERYTHROCYTE COUNT,[5],7.39 x10E6/uL
same,HEMATOCRIT,[5],47.37%
same,HEMOGLOBIN,[5],15.03 G/DL
same,LEUKOCYTE COUNT,[5],10.09 x10E3/uL
same,LYMPHOCYTE,[5],72.77%
same,MEAN CORPUSCULAR HEMOGLOBIN,[5],20.37 pg
same,MEAN CORPUSCULAR HEMOGLOBIN CONCENTRATION,[5],31.73 G/DL
same,MEAN CORPUSCULAR VOLUME,[5],64.2 fL
same,MONOCYTE,[5],4.53%
same,NEUTROPHIL,[5],20.93%
same,PLATELET COUNT,[5],1284.67 x10E3/uL
same,ALANINE AMINOTRANSFERASE,[5],55.33 u/L
same,ALBUMIN,[5],3.9 G/DL
same,ALKALINE PHOSPHATASE,[5],305.67 u/L
same,ASPARTATE AMINOTRANSFERASE,[5],236.67 u/L
same,BLOOD UREA NITROGEN,[5],13 mg/dL
same,CARBON DIOXIDE,[5],28.33 mmol/L
same,CHLORIDE,[5],103.67 MEQ/L
same,CHOLESTEROL,[5],44.67 mg/dL
same,CREATINE PHOSPHOKINASE,[5],186.67 u/L
same,CREATININE,[5],0.33 mg/dL
same,GLUCOSE,[5],139.33 mg/dL
same,LACTATE DEHYDROGENASE,[5],62.67 u/L
same,LIPASE,[5],8 u/L
same,PHOSPHORUS,[5],12.8 mg/dL
same,POTASSIUM,[5],6 MEQ/L
same,SODIUM,[5],148 MEQ/L
same,TOTAL BILIRUBIN,[5],0.27 mg/dL
same,TOTAL PROTEIN,[5],6 G/DL
same,URIC ACID,[5],1.63 mg/dL
same,BASOPHIL,[6],0.37%
same,EOSINOPHIL,[6],0.67%
same,ERYTHROCYTE COUNT,[6],7.6 x10E6/uL
same,HEMATOCRIT,[6],45.9%
same,HEMOGLOBIN,[6],15.3 G/DL
same,LEUKOCYTE COUNT,[6],16.12 x10E3/uL
same,LYMPHOCYTE,[6],84.43%
same,MEAN CORPUSCULAR HEMOGLOBIN,[6],20.2 pg
same,MEAN CORPUSCULAR HEMOGLOBIN CONCENTRATION,[6],33.37 G/DL
same,MEAN CORPUSCULAR VOLUME,[6],60.43 fL
same,MONOCYTE,[6],1.7%
same,NEUTROPHIL,[6],11.33%
same,PLATELET COUNT,[6],1183 x10E3/uL
same,ALANINE AMINOTRANSFERASE,[6],46 u/L
same,ALBUMIN,[6],4.3 G/DL
same,ALKALINE PHOSPHATASE,[6],329.67 u/L
same,ASPARTATE AMINOTRANSFERASE,[6],114 u/L
same,BLOOD UREA NITROGEN,[6],16.33 mg/dL
same,CARBON DIOXIDE,[6],26.67 mmol/L
same,CHLORIDE,[6],101 MEQ/L
same,CHOLESTEROL,[6],72 mg/dL
same,CREATINE PHOSPHOKINASE,[6],262 u/L
same,CREATININE,[6],0.43 mg/dL
same,GLUCOSE,[6],144 mg/dL
same,LACTATE DEHYDROGENASE,[6],145.67 u/L
same,LIPASE,[6],9 u/L
same,PHOSPHORUS,[6],10.07 mg/dL
same,POTASSIUM,[6],6.2 MEQ/L
same,SODIUM,[6],149 MEQ/L
same,TOTAL BILIRUBIN,[6],0.4 mg/dL
same,URIC ACID,[6],1.8 mg/dL
